For orientation: IC50 means the concentration that gives 50% inhibition. What is called pIC50 is the IC50 on a negative log10 scale, so that one unit is a factor of ten.

Consider two compounds from US12378247B2, “Mesylate salt of para-topolin, compositions containing said salt and use thereof” (USTAV EXPERIMENTALNI BOTANIKY AV CR, V. V. I., priority 2020, dated 2025).

Each structure is given as a SMILES string. pIC50: −log10 of the molar value. “And” between values parts separate entries of the source, which are not always exact repeats. Equal entries are not always repeated. Structures can show the parent of a compound that is named as a salt. Bounds are passed on as bounds.

Series [1] is described as follows: Aqueous solubility (saturated solution, HPLC). The format is physicochemical. As to conditions: thermodynamic from solid, water, read-out: concentration of saturated solution in water (aqueous solubility). As for the experimental part:
Aqueous solubility was measured using the following protocol. Supersaturated solution of para-topolin mesylate salt in water was prepared. The solution was filtrated from visible undissolved particles of the salt to obtain saturated solution. Saturated solution was diluted 1:10 000 and measured using HPLC Alliance Waters 2690 with C18 Symmetry column with the diameter 2.1 mm and 150 mm length with a porosity of 5 μm. The sample was dissolved in the mobile phase (MeOH:HCOONH4-1:9). The sample was washed with a methanol gradient (10-90%, 35 min) at pH 4 and a flow rate of 0.3 ml/min. The absorbances of the components were detected in the UV region at 210-400 nm. The peak area was 2729231. Obtained peak area was compared to area peaks measured at certain concentration and the final concentration of saturated solution was determined.

Another series is described as follows: Disproportionation study. The series is classed as physicochemical. As to conditions: 50 mg in 1 ml distilled water, ca. 48 hours, recrystallized. As for the experimental part:
A 50 mg sample of crystalline para-topolin mesylate salt was dissolved in 1 ml of distilled water, kept in solution for ca. 48 hours and then crystallized and checked by XRPD for disproportionation.

Series [2] in a line: Calcein AM cytotoxicity assay, CEM. The format is cell-based. As to conditions: human, CEM cells (T-lymphoblastic leukaemia), 3-day Calcein-AM assay, read-out: Cytotoxic activity IC50. From the text: (§1) Because toxic compounds negatively influence metabolic processes of cells, many standard cytotoxicity assays are based on measurement of metabolisation rate of various artificial substrates. Resulting product is then quantified, for example, by means of spectrometry. The assays can be easily modified for use in 96-well plates. For evaluation of cytotoxicity of the […] of this invention, a microtiter assay based on quantification of metabolisation of Calcein AM was used. The assay is widely used in drug screening programs and in chemosensitivity testing. In live cells, Calcein AM is enzymatically hydrolysed and accumulation of the resulting calcein is manifested by green fluorescence. […]
(§2) Approximately 10,000 cells in 80 μL of medium were seeded into 96-well microtitre plates. […] The fluorescence of free calcein was then quantified using a Fluoroscan Ascent fluorometer (Microsystems), and the percentage of surviving cells in each well was calculated by dividing the OD obtained from each cell with exposed cells by the mean OD obtained from control wells×100%. […]

Series [3] in a line: Calcein AM cytotoxicity assay, HL60. As to conditions: human, HL-60 cells (promyelocytic leukaemia); HL60, 3-day Calcein-AM assay; read-out: Cytotoxic activity IC50. The format is cell-based.
Text: as §1, §2

Series [4] in a line: Calcein AM cytotoxicity assay, K562. The format is cell-based. The note with it: human, K562 cells (chronic myelogenous leukaemia), K562, 3-day Calcein-AM assay; read-out: Cytotoxic activity IC50.
Text: as §1, §2

Series [5] is described as follows: Calcein AM cytotoxicity assay, RPMI 8226. The format is cell-based. As to conditions: human, RPMI 8226 cells (multiple myeloma); RPMI 8226, 3-day Calcein-AM assay; read-out: Cytotoxic activity IC50.
Text: as §1, §2

A short description of series [6]: Calcein AM cytotoxicity assay, MCF7. The note with it: human, MCF-7 cells (breast adenocarcinoma); MCF7, 3-day Calcein-AM assay; read-out: Cytotoxic activity IC50. The series is classed as cell-based.
Text: as §1, §2

Series [7] in a line: Calcein AM cytotoxicity assay, G361. The series is classed as cell-based. As to conditions: human, G361 cells (malignant melanoma); G361, 3-day Calcein-AM assay; read-out: Cytotoxic activity IC50.
Text: as §1, §2

Series [8] relates to CEM (T-lymphoblastic leukaemia). Briefly: Calcein AM cytotoxicity assay, CEM. As to conditions: 3-day Calcein-AM assay, read-out: Cytotoxic activity IC50. The format is cell-based.
Text: as §1, §2

For series [9], the system named is HL-60 (promyelocytic leukaemia). As to the kind of experiment: Calcein AM cytotoxicity assay, HL60. The format is cell-based. As to conditions: HL60, 3-day Calcein-AM assay; read-out: Cytotoxic activity IC50.
Text: as §1, §2

Series [10] concerns K562 (chronic myelogenous leukaemia). Briefly: Calcein AM cytotoxicity assay, K562. The series is classed as cell-based. The note with it: K562, 3-day Calcein-AM assay; read-out: Cytotoxic activity IC50.
Text: as §1, §2

The test system of series [11] is RPMI 8226 (multiple myeloma). Briefly: Calcein AM cytotoxicity assay, RPMI 8226. The format is cell-based. The note with it: RPMI 8226, 3-day Calcein-AM assay; read-out: Cytotoxic activity IC50.
Text: as §1, §2

Series [12] relates to MCF-7 (breast adenocarcinoma). Briefly: Calcein AM cytotoxicity assay, MCF7. The series is classed as cell-based. The note with it: MCF7, 3-day Calcein-AM assay; read-out: Cytotoxic activity IC50.
Text: as §1, §2

For series [13], the system named is G361 (malignant melanoma). Briefly: Calcein AM cytotoxicity assay, G361. The format is cell-based. The note with it: G361, 3-day Calcein-AM assay; read-out: Cytotoxic activity IC50.
Text: as §1, §2

For `Oc1ccc(CNc2ncnc3nc[nH]c23)cc1` [para-topolin mesylate, 6-(4-hydroxybenzylamino) purine (para-topolin) mesylate (methylsulphonate)], the Solubility in [1] was ~1.2e+06 µM and ~407000 µg/mL. Also, in “Disproportionation study”, the “Disproportionation (XRPD)” value is “No signs of disproportionation”. Moreover, the IC50 at 72 h in series [2], in series [3], in series [4], in series [5], in [6] and in [7] was greater than 167 µM each time.
For the compound `Oc1ccc(CNc2ncnc3nc[nH]c23)cc1` [para-topolin, 6-(4-Hydroxybenzylamino) purine], the pIC50 was less than 3.78 in series [8]; less than 3.78 in [9]; 3.85 in series [10]; less than 3.78 in [11]; less than 3.78 in series [12]; less than 3.78 in [13].
